# In the supplement of paper PMC10307832:
# Columns and labels:
# Assay in all cases: relative viability (nuclei count vs DMSO), 5 days (fraction); higher = more cells survive
# UMC-11 = tested on: UMC-11
# Summary of the method: (§1)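 Relative viability is defined as nuclei in treated wells over nuclei in vehicle wells. Duplicate plates were run and medians reported. Lung cancer cell lines in 1536-well plates were dosed by pin tool one day after seeding, with one drug or with a fixed anchor-drug dose plus five library-drug doses (not always all listed) in √10 steps, and nuclei were counted after 5 days.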
# LOU-NH91 = tested on: LOU-NH91
# Summary of the method: as §1
# ChaGo-K-1 = tested on: ChaGo-K-1
# Summary of the method: as §1
# HCC-78 = tested on: HCC-78
# Summary of the method: as §1
# NCI-H1651 = tested on: NCI-H1651
# Summary of the method: as §1
# NCI-H1944 = tested on: NCI-H1944
# Summary of the method: as §1
# RERF-LC-KJ = tested on: RERF-LC-KJ
# Summary of the method: as §1
# CAL-12T = tested on: CAL-12T
# Summary of the method: as §1
# NCI-H1755 = tested on: NCI-H1755
# Summary of the method: as §1
# LU99A = tested on: LU99A
# Summary of the method: as §1
# NCI-H3122 = tested on: NCI-H3122
# Summary of the method: as §1
# PC-3 [JPC-3] = tested on: PC-3 [JPC-3]
# Summary of the method: as §1
# NCI-H2087 = tested on: NCI-H2087
# Summary of the method: as §1
# NCI-H2228 = tested on: NCI-H2228
# Summary of the method: as §1
# HCC-366 = tested on: HCC-366
# Summary of the method: as §1
# NCI-H2405 = tested on: NCI-H2405
# Summary of the method: as §1
# ABC-1 = tested on: ABC-1
# Summary of the method: as §1
# NCI-H460 = tested on: NCI-H460
# Summary of the method: as §1
# LC-2-ad = tested on: LC-2-ad
# Summary of the method: as §1
# NCI-H2170 = tested on: NCI-H2170
# Summary of the method: as §1
compound,measurement,setting,value
CCN(CC)CCCCNc1ncc2cc(-c3cc(OC)cc(OC)c3)c(NC(=O)NC(C)(C)C)nc2n1 + C[C@@H](Oc1cc(-c2cnn(C3CCNCC3)c2)cnc1N)c1c(Cl)ccc(F)c1Cl [Crizotinib] (partner 1 µM),relative viability,UMC-11; first compound 0.01 µM,0.691
same,relative viability,UMC-11; first compound 0.03162 µM,0.459
same,relative viability,UMC-11; first compound 0.1 µM,0.636
same,relative viability,UMC-11; first compound 0.3162 µM,0.805
same,relative viability,UMC-11; first compound 1 µM,0.554
same,relative viability,LOU-NH91; first compound 0.01 µM,0.733
same,relative viability,LOU-NH91; first compound 0.03162 µM,0.723
same,relative viability,LOU-NH91; first compound 0.1 µM,0.776
same,relative viability,LOU-NH91; first compound 0.3162 µM,0.747
same,relative viability,LOU-NH91; first compound 1 µM,0.725
same,relative viability,ChaGo-K-1; first compound 0.01 µM,1.24
same,relative viability,ChaGo-K-1; first compound 0.03162 µM,1.08
same,relative viability,ChaGo-K-1; first compound 0.1 µM,1.09
same,relative viability,ChaGo-K-1; first compound 0.3162 µM,1.32
same,relative viability,ChaGo-K-1; first compound 1 µM,1.06
same,relative viability,HCC-78; first compound 0.03162 µM,0.318
same,relative viability,HCC-78; first compound 0.1 µM,0.347
same,relative viability,HCC-78; first compound 0.3162 µM,0.368
same,relative viability,HCC-78; first compound 1 µM,0.299
same,relative viability,NCI-H1651; first compound 0.01 µM,0.925
same,relative viability,NCI-H1651; first compound 0.03162 µM,0.851
same,relative viability,NCI-H1651; first compound 0.1 µM,0.945
same,relative viability,NCI-H1651; first compound 0.3162 µM,0.909
same,relative viability,NCI-H1651; first compound 1 µM,0.828
same,relative viability,NCI-H1944; first compound 0.01 µM,1.29
same,relative viability,NCI-H1944; first compound 0.03162 µM,1.14
same,relative viability,NCI-H1944; first compound 0.1 µM,1.12
same,relative viability,NCI-H1944; first compound 0.3162 µM,1.35
same,relative viability,NCI-H1944; first compound 1 µM,1.09
same,relative viability,RERF-LC-KJ; first compound 0.01 µM,0.84
same,relative viability,RERF-LC-KJ; first compound 0.03162 µM,0.818
same,relative viability,RERF-LC-KJ; first compound 0.1 µM,1.13
same,relative viability,RERF-LC-KJ; first compound 0.3162 µM,0.916
same,relative viability,RERF-LC-KJ; first compound 1 µM,0.816
same,relative viability,CAL-12T; first compound 0.01 µM,0.809
same,relative viability,CAL-12T; first compound 0.03162 µM,0.612
same,relative viability,CAL-12T; first compound 0.1 µM,0.553
same,relative viability,CAL-12T; first compound 0.3162 µM,0.666
same,relative viability,CAL-12T; first compound 1 µM,0.533
same,relative viability,NCI-H1755; first compound 0.01 µM,0.928
same,relative viability,NCI-H1755; first compound 0.03162 µM,0.94
same,relative viability,NCI-H1755; first compound 0.1 µM,1.17
same,relative viability,NCI-H1755; first compound 0.3162 µM,0.984
same,relative viability,NCI-H1755; first compound 1 µM,0.892
same,relative viability,LU99A; first compound 0.01 µM,0.547
same,relative viability,LU99A; first compound 0.03162 µM,0.63
same,relative viability,LU99A; first compound 0.1 µM,0.616
same,relative viability,LU99A; first compound 0.3162 µM,0.583
same,relative viability,LU99A; first compound 1 µM,0.484
same,relative viability,NCI-H3122; first compound 0.01 µM,0.273
same,relative viability,NCI-H3122; first compound 0.03162 µM,0.282
same,relative viability,NCI-H3122; first compound 0.1 µM,0.317
same,relative viability,NCI-H3122; first compound 0.3162 µM,0.291
same,relative viability,NCI-H3122; first compound 1 µM,0.279
same,relative viability,PC-3 [JPC-3]; first compound 0.01 µM,1
same,relative viability,PC-3 [JPC-3]; first compound 0.03162 µM,1.01
same,relative viability,PC-3 [JPC-3]; first compound 0.1 µM,1.04
same,relative viability,PC-3 [JPC-3]; first compound 0.3162 µM,1.04
same,relative viability,PC-3 [JPC-3]; first compound 1 µM,0.889
same,relative viability,NCI-H2087; first compound 0.01 µM,0.925
same,relative viability,NCI-H2087; first compound 0.03162 µM,0.967
same,relative viability,NCI-H2087; first compound 0.1 µM,1.01
same,relative viability,NCI-H2087; first compound 0.3162 µM,0.958
same,relative viability,NCI-H2087; first compound 1 µM,1.06
same,relative viability,NCI-H2228; first compound 0.01 µM,0.408
same,relative viability,NCI-H2228; first compound 0.03162 µM,0.564
same,relative viability,NCI-H2228; first compound 0.1 µM,0.348
same,relative viability,NCI-H2228; first compound 0.3162 µM,0.358
same,relative viability,NCI-H2228; first compound 1 µM,0.243
same,relative viability,HCC-366; first compound 0.01 µM,0.632
same,relative viability,HCC-366; first compound 0.03162 µM,0.924
same,relative viability,HCC-366; first compound 0.1 µM,0.947
same,relative viability,HCC-366; first compound 0.3162 µM,0.741
same,relative viability,HCC-366; first compound 1 µM,0.512
same,relative viability,NCI-H2405; first compound 0.01 µM,0.834
same,relative viability,NCI-H2405; first compound 0.03162 µM,0.868
same,relative viability,NCI-H2405; first compound 0.1 µM,0.893
same,relative viability,NCI-H2405; first compound 0.3162 µM,0.873
same,relative viability,NCI-H2405; first compound 1 µM,0.8
same,relative viability,ABC-1; first compound 0.01 µM,1.53
same,relative viability,ABC-1; first compound 0.03162 µM,1.34
same,relative viability,ABC-1; first compound 0.1 µM,1.18
same,relative viability,ABC-1; first compound 0.3162 µM,1.09
same,relative viability,ABC-1; first compound 1 µM,0.905
same,relative viability,NCI-H460; first compound 0.01 µM,1.15
same,relative viability,NCI-H460; first compound 0.03162 µM,0.934
same,relative viability,NCI-H460; first compound 0.1 µM,1.36
same,relative viability,NCI-H460; first compound 0.3162 µM,1.07
same,relative viability,NCI-H460; first compound 1 µM,0.797
same,relative viability,LC-2-ad; first compound 0.01 µM,0.834
same,relative viability,LC-2-ad; first compound 0.03162 µM,0.503
same,relative viability,LC-2-ad; first compound 0.1 µM,0.49
same,relative viability,LC-2-ad; first compound 0.3162 µM,0.488
same,relative viability,LC-2-ad; first compound 1 µM,0.39
same,relative viability,NCI-H2170; first compound 0.01 µM,1.35
same,relative viability,NCI-H2170; first compound 0.03162 µM,1.34
same,relative viability,NCI-H2170; first compound 0.1 µM,1.32
same,relative viability,NCI-H2170; first compound 0.3162 µM,1.27
same,relative viability,NCI-H2170; first compound 1 µM,1.16
